Laboratory results taken from the supplement of paper PMC10307832.

Compound: CC1CC(=O)N(C2=CN=C(N=C2N1C3CCCC3)NC4=C(C=C(C=C4)C(=O)NC5CCN(CC5)C)OC)C [NPK76-II-72-1] + CCNC(=O)c1noc(-c2cc(C(C)C)c(O)cc2O)c1-c1ccc(CN2CCOCC2)cc1 [Luminespib] (partner 0.01 µM)
Assay: relative viability (nuclei count vs DMSO), 5 days (fraction); higher = more cells survive
Conditions: first compound 0.01 µM
Outline: (§1)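 The day after seeding in 1536-well plates, lung cancer cell lines were treated by pin tool with a single drug, or with a fixed anchor-drug dose together with five library-drug doses (not always all listed) in √10 steps. After 5 days, a combined fix-and-stain solution (final 0.05% Triton X-100, 1% formaldehyde, 1 ug/ml Hoechst) was added. Nuclei counted on 4× images gave relative viability as treated counts over vehicle counts, reported as the median of duplicate plates.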

Point of comparison: PC-3 [JPC-3], relative viability 0.622. Against it:
- LC-2-ad — higher, 0.979
- NCI-H1944 — higher, 0.743
- NCI-H1975 — lower, 0.23
- RERF-LC-KJ — higher, 1.33
- NCI-H358 — lower, 0.21
- NCI-H650 — higher, 0.72

Same assay, conditions: first compound 0.03162 µM

Point of comparison: PC-3 [JPC-3], relative viability 0.705. Against it:
- LC-2-ad — higher, 1.12
- NCI-H1944 — higher, 0.781
- NCI-H1975 — lower, 0.196
- RERF-LC-KJ — higher, 1.41
- ABC-1 — lower, 0.389
- NCI-H358 — lower, 0.431
- NCI-H650 — higher, 0.843

Same assay, conditions: first compound 0.1 µM

Point of comparison: PC-3 [JPC-3], relative viability 0.638. Against it:
- LC-2-ad — higher, 0.955
- NCI-H1944 — higher, 0.722
- NCI-H1975 — lower, 0.183
- RERF-LC-KJ — higher, 1.3
- NCI-H358 — lower, 0.521
- NCI-H650 — higher, 0.718

Same assay, conditions: first compound 0.3162 µM

Point of comparison: RERF-LC-KJ, relative viability 1.21. Against it:
- LC-2-ad — lower, 1.04
- NCI-H1944 — lower, 0.723
- NCI-H1975 — lower, 0.243
- ABC-1 — lower, 0.543
- NCI-H650 — lower, 0.615
- PC-3 [JPC-3] — lower, 0.713

Same assay, conditions: first compound 1 µM

Point of comparison: NCI-H1944, relative viability 0.807. Against it:
- LC-2-ad — higher, 1.16
- NCI-H1975 — lower, 0.294
- RERF-LC-KJ — higher, 1.33
- ABC-1 — lower, 0.522
- NCI-H358 — higher, 0.839
- NCI-H650 — higher, 0.891
- PC-3 [JPC-3] — lower, 0.728

Compound: CC1CC(=O)N(C2=CN=C(N=C2N1C3CCCC3)NC4=C(C=C(C=C4)C(=O)NC5CCN(CC5)C)OC)C [NPK76-II-72-1] + Cc1nc(Nc2ncc(C(=O)Nc3c(C)cccc3Cl)s2)cc(N2CCN(CCO)CC2)n1 [Dasatinib] (partner 0.075 µM)
Assay: as above
Conditions: first compound 0.01 µM
Outline: as §1

Point of comparison: RERF-LC-KJ, relative viability 0.818. Against it:
- LC-2-ad — lower, 0.569
- NCI-H1944 — lower, 0.205
- NCI-H1975 — lower, 0.336
- NCI-H358 — lower, 0.162
- NCI-H650 — lower, 0.457
- PC-3 [JPC-3] — higher, 0.937

Same assay, conditions: first compound 0.03162 µM

Point of comparison: PC-3 [JPC-3], relative viability 1.02. Against it:
- LC-2-ad — lower, 0.862
- NCI-H1944 — lower, 0.219
- NCI-H1975 — lower, 0.402
- RERF-LC-KJ — lower, 0.886
- ABC-1 — lower, 0.578
- NCI-H358 — lower, 0.14
- NCI-H650 — lower, 0.455

Same assay, conditions: first compound 0.1 µM

Point of comparison: NCI-H358, relative viability 0.156. Against it:
- LC-2-ad — higher, 0.485
- NCI-H1944 — higher, 0.224
- NCI-H1975 — higher, 0.359
- RERF-LC-KJ — higher, 0.722
- ABC-1 — higher, 0.622
- NCI-H650 — higher, 0.411
- PC-3 [JPC-3] — higher, 0.916

Same assay, conditions: first compound 0.3162 µM

Point of comparison: ABC-1, relative viability 0.573. Against it:
- LC-2-ad — lower, 0.438
- NCI-H1944 — lower, 0.221
- NCI-H1975 — lower, 0.439
- RERF-LC-KJ — higher, 0.732
- NCI-H650 — lower, 0.423
- PC-3 [JPC-3] — higher, 0.973

Same assay, conditions: first compound 1 µM

Point of comparison: ABC-1, relative viability 0.614. Against it:
- LC-2-ad — higher, 0.791
- NCI-H1944 — lower, 0.226
- NCI-H1975 — lower, 0.382
- RERF-LC-KJ — higher, 0.808
- NCI-H358 — lower, 0.149
- NCI-H650 — lower, 0.494
- PC-3 [JPC-3] — higher, 1.07

Compound: CC1CC(=O)N(C2=CN=C(N=C2N1C3CCCC3)NC4=C(C=C(C=C4)C(=O)NC5CCN(CC5)C)OC)C [NPK76-II-72-1] + O=C(CCCCCCC(=O)Nc1ccccc1)NO [Vorinostat] (partner 1 µM)
Assay: as above
Conditions: first compound 0.01 µM
Outline: as §1

Point of comparison: NCI-H1975, relative viability 0.676. Against it:
- LC-2-ad — lower, 0.619
- NCI-H1944 — lower, 0.49
- RERF-LC-KJ — lower, 0.639
- ABC-1 — higher, 1
- NCI-H358 — lower, 0.674
- NCI-H650 — lower, 0.445
- PC-3 [JPC-3] — higher, 0.807

Same assay, conditions: first compound 0.03162 µM

Point of comparison: LC-2-ad, relative viability 0.768. Against it:
- NCI-H1944 — lower, 0.583
- NCI-H1975 — lower, 0.736
- RERF-LC-KJ — lower, 0.725
- ABC-1 — higher, 1.13
- NCI-H358 — lower, 0.647
- NCI-H650 — lower, 0.441

Same assay, conditions: first compound 0.1 µM

Point of comparison: RERF-LC-KJ, relative viability 0.662. Against it:
- LC-2-ad — higher, 0.668
- NCI-H1944 — lower, 0.508
- NCI-H1975 — the same, 0.662
- ABC-1 — lower, 0.356
- NCI-H358 — higher, 0.754
- NCI-H650 — lower, 0.453
- PC-3 [JPC-3] — higher, 0.799

Same assay, conditions: first compound 0.3162 µM

Point of comparison: PC-3 [JPC-3], relative viability 0.848. Against it:
- LC-2-ad — lower, 0.755
- NCI-H1944 — lower, 0.485
- NCI-H1975 — lower, 0.694
- RERF-LC-KJ — lower, 0.701
- ABC-1 — higher, 1.36
- NCI-H650 — lower, 0.307

Same assay, conditions: first compound 1 µM

Point of comparison: PC-3 [JPC-3], relative viability 0.905. Against it:
- LC-2-ad — lower, 0.698
- NCI-H1944 — lower, 0.646
- NCI-H1975 — lower, 0.712
- RERF-LC-KJ — lower, 0.673
- ABC-1 — higher, 1.07
- NCI-H358 — lower, 0.818
- NCI-H650 — lower, 0.521

Compound: CC[C@@H]1C(=O)N(C)c2cnc(Nc3ccc(C(=O)NC4CCN(C)CC4)cc3OC)nc2N1C1CCCC1 [BI-2536] + Cc1cc(Nc2cc(N3CCN(C)CC3)nc(Sc3ccc(NC(=O)C4CC4)cc3)n2)n[nH]1 [Tozasertib] (partner 0.1 µM)
Assay: as above
Conditions: first compound 0.01 µM
Outline: as §1

Point of comparison: NCI-H1975, relative viability 0.664. Against it:
- LC-2-ad — lower, 0.412
- NCI-H1944 — lower, 0.25
- RERF-LC-KJ — lower, 0.496
- ABC-1 — lower, 0.203
- NCI-H358 — lower, 0.113
- NCI-H650 — lower, 0.64
- PC-3 [JPC-3] — higher, 0.889

Same assay, conditions: first compound 0.03162 µM

Point of comparison: NCI-H358, relative viability 0.105. Against it:
- LC-2-ad — higher, 0.278
- NCI-H1944 — higher, 0.268
- NCI-H1975 — higher, 0.673
- RERF-LC-KJ — higher, 0.405
- ABC-1 — higher, 0.147
- NCI-H650 — higher, 0.529
- PC-3 [JPC-3] — higher, 0.693

Same assay, conditions: first compound 0.1 µM

Point of comparison: LC-2-ad, relative viability 0.279. Against it:
- NCI-H1944 — lower, 0.234
- NCI-H1975 — higher, 0.393
- RERF-LC-KJ — lower, 0.275
- ABC-1 — lower, 0.185
- NCI-H358 — lower, 0.103
- NCI-H650 — higher, 0.358
- PC-3 [JPC-3] — higher, 0.707

Same assay, conditions: first compound 0.3162 µM

Point of comparison: NCI-H1975, relative viability 0.116. Against it:
- LC-2-ad — higher, 0.318
- NCI-H1944 — higher, 0.234
- RERF-LC-KJ — higher, 0.224
- ABC-1 — higher, 0.197
- NCI-H358 — lower, 0.0917
- NCI-H650 — higher, 0.181
- PC-3 [JPC-3] — higher, 0.289

Same assay, conditions: first compound 1 µM

Point of comparison: NCI-H650, relative viability 0.16. Against it:
- LC-2-ad — higher, 0.383
- NCI-H1944 — higher, 0.195
- NCI-H1975 — lower, 0.0975
- RERF-LC-KJ — higher, 0.226
- ABC-1 — higher, 0.233
- NCI-H358 — lower, 0.0924
- PC-3 [JPC-3] — higher, 0.313
